Tests used:
Type in all cases: cell-based, mouse
C2C12 cells [1] = test: BrdU cell proliferation assay (plate and slide); settings: for Effect of inhibitor on IGF-I induced proliferation: C2C12 BrdU plate assay, IGF-I 10 nM, PD 50 µM, NVP 100 nM
Method: Proliferation was measured using a 5-bromo-2P-deoxyuridine (BrdU) plate and slide assays (Roche, Indianapolis, IN). For the plate assay, 5×10^3 C2C12 cells were seeded in 96-well plates. Cells were starved for 6 hours, and treated with synthetic E-peptides or recombinant IGF-I overnight. BrdU was added for incorporation for 2 hours before cell lysis and BrdU staining. For MAPK inhibition, a MEK inhibitor was added to the media (PD 098059, Sigma, 50 µM). For IGF-IR inhibition, 100 nM NVPAEW541 was added to the media. The slide assay was done as above, except with 2×10^4 C2C12 cells in 24-well plates on glass cover slips. Cells were stained with an antibody to BrdU and with DAPI (VectorLabs, Burlingame, CA) to visualize nuclei. Images were acquired using a Leica DMR epifluorescence microscope using OpenLab imaging software (Improvision, PerkinElmer, Waltham, MA).

[2] = test system: ERK1/2 phosphorylation (MAPK signaling) in C2C12 cells; test: ERK1/2 phosphorylation immunoblot after synthetic E-peptide treatment
Method: (§1) C2C12 (ATCC, Manassas, VA) cells were maintained in growth media (DMEM containing, 10% fetal bovine serum, and gentamicin). For signaling experiments, 2×10^4 cells were seeded in 6-well plates in growth media and allowed to attach and grow overnight. The next day, cells were starved overnight in growth media without serum. On the third day, cells were treated with synthetic E-peptides and/or recombinant human IGF-I (Gemini Bio-Products West Sacramento, CA) for the time periods indicated in figures, and the cells were processed for immunoblotting as described below. For IGF-IR inhibition, 100 nM NVPAEW541 [47] diluted in DMSO or DMSO only was added to starved cells 90 minutes before and during treatment with synthetic peptides.
(§2) Signaling pathway activation was determined by immunoblotting.

[3] = test system: Akt phosphorylation in C2C12 cells; test: Akt phosphorylation immunoblot; settings: C2C12, 20 min; EA 1 µM, EB 10 nM, IGF-I 10 nM
Method: as §1, §2

C2C12 cells [4] = test: Transwell cell migration assay; settings: C2C12 trans-well, 5 hours, PD 50 µM, NVP 100 nM; for Effect of inhibitor on EB induced migration: EB 100 nM
Method: E-peptide effects on cell migration were tested using a 24-well Transwell (8.0 µm pore size) plate assay (Corning Inc., Lowell, MA). C2C12 cells (2×10^4) were seeded in the upper chambers in serum-free media, and synthetic E-peptides in serum-free media were placed in the bottom chambers. Cells were allowed to migrate for 5 hours. Non-migrated cells remaining in the upper chamber were removed from the transwell membranes with Q-tips and migrated cells were fixed with 4% formaldehyde and stained with DAPI. The transwell membranes were mounted onto slides, and imaged at 10× using above-mentioned microscopy and analysis software. For MAPK signaling or IGF-IR inhibition, PD (50 µM) or NVP (100 nM) was added to both chambers at the start of the experiment.

Row | Compound | Proliferation by BrdU positivity on slides (in words) (C2C12 cells [1]; C2C12 on cover slips, EA and Scr 100 nM, EB and IGF 10 nM, N = 5 slides) | P-ERK1/2 response (in words), without inhibitor ([2]; C2C12, 20 min, EA 1 µM, EB 10 nM, IGF-I 10 nM, DMSO) | P-Akt response (in words) [3] | Effect of inhibitor on IGF-I induced proliferation (C2C12 cells [1]) | Effect of inhibitor on EB induced migration (C2C12 cells [4]) | Effect of inhibitor on cell migration in the absence of E-peptides (C2C12 cells [4]) | Effect of IGF-IR inhibitor on ERK1/2 phosphorylation in EA, EB and IGF-I treated cells ([2]; C2C12, NVP 100 nM 90 min before and during 20 min stimulation, EA 1 µM, EB 10 nM, IGF-I 10 nM, vs DMSO, N = 3) | Effect of IGF-IR inhibitor on ERK1/2 phosphorylation in NoTx cells ([2]; C2C12, NVP 100 nM vs DMSO, no stimulation)
1 | IGF-I: recombinant human IGF-I (Gemini Bio-Products), positive control | increased C2C12 proliferation | increase in both P-Akt and P-ERK1/2 | increase in both P-Akt and P-ERK1/2 |  |  |  |  | 
2 | Nc1ncnc2c1c(-c1cccc(OCc3ccccc3)c1)cn2[C@H]1C[C@@H](CN2CCC2)C1 [NVP, NVPAEW541] |  |  |  | significantly decreased IGF-I induced proliferation | significantly decreased EB induced migration | not affected | significantly reduced the ERK1/2 phosphorylation | no change in ERK1/2 phosphorylation
3 | COc1cccc(-c2cc(=O)c3ccccc3o2)c1N [PD, PD 098059] |  |  |  | significantly decreased IGF-I induced proliferation | decrease in EB migration that did not reach significance | not affected |  | 

— PMC3448668, “Insulin-Like Growth Factor-I E-Peptide Activity Is Dependent on the IGF-I Receptor” (PLoS ONE, 2012)
